Earlier results in patent publication US6051685A, “Peptide derivatives” (Daiichi Pharmaceuticals Co., Ltd., priority 1994, dated 2000).

Key:
[1] = in vivo
[2] = intraventricular administration

C[C@@H](NC(=O)[C@@H](N)Cc1ccc(O)cc1)C(=O)N[C@@H](Cc1ccccc1)C(=O)NCC(=O)N[C@@H](Cc1ccc(O)cc1)C(=O)N1CCC[C@H]1C(=O)N[C@@H](CO)C(N)=O [Delmorfine, Dermorphin]
stability in living bodies [1]: relatively stable in living bodies
analgesic effect relative to morphine [2]: about 1,000 fold
